Numbers after ± are expanded uncertainties.
Details: Crystal; visual observation

Clc1nc(Cl)c(Cl)c(Cl)c1Cl [pentachloropyridine]
Normal melting temperature: 124.00 ± 0.5 °C

Clc1cc(Cl)c(Cl)nc1Cl [2,3,5,6-tetrachloropyridine]
Normal melting temperature: 90.00 ± 0.5 °C

Source: the NIST ThermoML archive (doi:10.1021/je0502804)
